Test results published in PubChem BioAssay (NCI).
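In this assay, cells in 96-well plates receive the compound at five concentrations for 48 hours. Endpoints are linearly interpolated between the surrounding concentrations. TGI denotes the concentration required for complete inhibition of growth.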

How the values were obtained:
Assay in all cases: NCI tumour cell line growth inhibition, 48 h
786-0 renal = tested on: 786-0 renal
BT-549 breast = tested on: BT-549 breast
DU-145 prostate = tested on: DU-145 prostate
HCC-2998 colon = tested on: HCC-2998 colon
HOP-62 NSCLC = tested on: HOP-62 NSCLC
HS 578T breast = tested on: HS 578T breast
MALME-3M melanoma = tested on: MALME-3M melanoma
MCF7 breast = tested on: MCF7 breast
MDA-MB-435 = tested on: MDA-MB-435
MDA-N = tested on: MDA-N
NCI-H23 lung = tested on: NCI-H23 lung
NCI/ADR-RES ovarian = tested on: NCI/ADR-RES ovarian
SK-OV-3 ovarian = tested on: SK-OV-3 ovarian

Measured: TGI

CCOc1cc(NC(C)=O)ccc1C(=O)N/N=C/c1ccco1
> 100 µM: all assays above

O=P(O)(O)OP(=O)(O)O
> 100 µM: all assays above
